Data as given in ChEMBL document CHEMBL1124275, “Synthesis and evaluation of multisubstrate inhibitors of an oncogene-encoded tyrosine-specific protein kinase. 1” (J Med Chem, 1988).
pIC50: −log10 of the molar value.

Key:
[1] = target: T1, Tyrosine-protein kinase transforming protein Abl (Abelson murine leukemia virus, UniProt P00521); assay: Inhibition of p60-vabl tyrosine kinase isolated from Abelson murine leukemia virus (A-MuLV)
T1 sequence (P00521 whole entry): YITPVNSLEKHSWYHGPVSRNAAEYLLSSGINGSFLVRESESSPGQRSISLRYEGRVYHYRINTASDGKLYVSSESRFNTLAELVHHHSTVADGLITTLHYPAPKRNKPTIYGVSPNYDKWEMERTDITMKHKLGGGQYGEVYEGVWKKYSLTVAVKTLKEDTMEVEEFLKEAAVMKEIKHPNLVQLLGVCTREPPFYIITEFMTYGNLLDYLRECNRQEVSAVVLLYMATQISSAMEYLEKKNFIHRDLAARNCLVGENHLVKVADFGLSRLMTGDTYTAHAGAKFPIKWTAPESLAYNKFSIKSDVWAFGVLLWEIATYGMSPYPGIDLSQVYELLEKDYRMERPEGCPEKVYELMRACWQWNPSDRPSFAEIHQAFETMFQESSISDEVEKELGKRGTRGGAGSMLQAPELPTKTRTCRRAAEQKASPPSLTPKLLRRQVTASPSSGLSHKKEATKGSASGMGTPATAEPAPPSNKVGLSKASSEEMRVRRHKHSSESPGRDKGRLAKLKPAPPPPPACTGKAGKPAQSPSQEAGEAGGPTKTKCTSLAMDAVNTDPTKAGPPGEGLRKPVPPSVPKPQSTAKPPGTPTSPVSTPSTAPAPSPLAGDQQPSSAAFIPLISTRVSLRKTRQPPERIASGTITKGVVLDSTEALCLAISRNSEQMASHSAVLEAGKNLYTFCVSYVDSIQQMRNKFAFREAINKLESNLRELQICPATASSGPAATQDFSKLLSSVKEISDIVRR

[2] = Inhibition of Phosphorylase (serine) Kinase activity

| SMILES | pIC50 [1] | pIC50 [2] |
| --- | --- | --- |
| Nc1ncnc2c1ncn2[C@@H]1O[C@H](COC(=O)c2ccc(S(=O)(=O)Oc3ccccc3)cc2)[C@@H](O)[C@H]1O | 3.77 | 4.10 |
| Nc1ncnc2c1ncn2[C@@H]1O[C@H](COC(=O)c2ccc(S(=O)(=O)Nc3ccccc3)cc2)[C@@H](O)[C@H]1O | 4.72 | 4.60 |
| Nc1ncnc2c1ncn2[C@@H]1O[C@H](COC(=O)c2ccc(S(=O)(=O)NCc3ccccc3)cc2)[C@@H](O)[C@H]1O | 4.35 | – |
| Nc1ncnc2c1ncn2[C@@H]1O[C@H](COC(=O)c2ccc(S(N)(=O)=O)cc2)[C@@H](O)[C@H]1O | 3.92 | 4.22 |
| Nc1ncnc2c1ncn2[C@@H]1O[C@H](COC(=O)c2ccc(S(=O)(=O)F)cc2)[C@@H](O)[C@H]1O | 3.82 | 3.60 |
| CC(=O)NC(Cc1ccc(OS(=O)(=O)c2ccc(C(=O)OC[C@H]3O[C@@H](n4cnc5c(N)ncnc54)[C@H](O)[C@@H]3O)cc2)cc1)C(N)=O (some centres undefined) | 3.92 | – |
| Nc1ncnc2c1ncn2[C@@H]1O[C@H](COC(=O)c2ccc(S(=O)(=O)NCCCc3ccccc3)cc2)[C@@H](O)[C@H]1O | 4.25 | 4.30 |
| CS(=O)(=O)c1ccc(C(=O)OC[C@H]2O[C@@H](n3cnc4c(N)ncnc43)[C@H](O)[C@@H]2O)cc1 | 4.20 | – |
| Nc1ncnc2c1ncn2[C@@H]1O[C@H](COC(=O)c2ccc(S(=O)(=O)NCCc3ccccc3)cc2)[C@@H](O)[C@H]1O | 4.30 | – |
